Laboratory results from US9315496B2, “Benzopyrone derivative and use thereof” (HUAZHONG UNIVERSITY OF SCIENCE & TECHNOLOGY, priority 2011, dated 2016).
Like-named read-outs stand apart in the source and are kept apart here.

Legend:
Catalepsy assay = assay type: in vivo; conditions: both sexes, Kunming (KM), mouse, in vivo; mice, po
Protocol: (§1) Healthy mice of Kunming breed (with half male and half female, (22±2)g) were provided by Qinglongshan Animal Cultivation Center, Nanjing.
(§2) Instruments: self-made bar-grabbing apparatus: stainless steel bar in mice box, which was 0.3 cm in diameter and […].
(§3) Corresponding solvent double-distilled water was administered intragastrically to the negative control group and the model group, corresponding positive drugs were administered intragastrically to the positive drug groups (a small amount of acetic acid was first added and then double-distilled water was added when dissolving), and corresponding dosages of compounds were administered intragastrically to the compound groups for each dosage, with the volume for intragastric administration as 0.1 ml/10 g. At 30 min, 60 min, 90 min after the intragastric administration, the two forepaws of the mice were gently placed on the bars (which were 20 cm in length, 0.3 cm in diameter, and 5.5 cm above the bench), and the hindpaws of the animals were placed on the bottom of the box. The durations for the mice to maintain the posture with the two forepaws on the bars were recorded, and 30 s of spasticity without moving was considered as the positive response. In the case the forepaws of the mice were not put down persistently, the observation was terminated at 60 s. The numbers of animals with positive response in each of the compound dosage groups were counted.

mice of Kunming breed = assay: MK-801 induced high activity in mice; assay type: in vivo; conditions: for ED50: Mus musculus, 1.5 h, po, MK-801 0.1 mg/kg ip, spontaneous activity in 90 min
Protocol: Healthy mice of Kunming breed (with half male and half female, (20±2)g) were provided by Qinglongshan Animal Cultivation Center, Nanjing.
Subsequently, the spontaneous activities of the mice of each group in 90 min were measured.

KM mice [1] = assay: Apomorphine induced clambering assay of mice; assay type: in vivo; conditions: for ED50: Mus musculus, po, apomorphine 1 mg/kg sc
Protocol: Healthy KM mice (male, with body weight of 18-22 g) were provided by Qinglongshan Animal Cultivation Center, Nanjing.
Test positive drugs: haloperidol, clozapine, risperidone, olanzapine, aripiprazole, ziprasidone, quetiapine.
Apomorphine provided by Sigma Company was dissolved in 0.9% NaCl (containing 0.1% vitamin C) before use, and was freshly formulated before use.
Corresponding solvent double-distilled water was administered intragastrically to the negative control group and the model group, corresponding positive drugs were administered intragastrically to the positive drug groups (a small amount of acetic acid was first added and then double-distilled water was added when dissolving), and corresponding dosages of compounds were administered intragastrically to the compound groups for each dosage, with the volume for intragastric administration as 0.1 ml/10 g. 1 hour after the intragastric administration, apomorphine was subcutaneously injected (1 mg/kg), with the volume as 0.1 ml/10 g. After the injection of apomorphine, the mice were immediately put into the clambering cages. After 5 min of adaptation, the behaviors of the mice at 10-11, 20-21, and 30-31 min after the injection of apomorphine were observed and scored. Scoring criteria: 4 paws on the floor was scored as 0; 2 forepaws on the cage was scored as 1; and 4 paws on the cage was scored as 2.

D3 receptor = target: T1, D3 receptor (Homo sapiens, UniProt P35462); assay: D3 receptor assay ([3H]-Spiperone, HEK-293 cells); assay type: binding; conditions: for inhibition at 10 µM: final concentration 10 μmol/L, [3H]-Spiperone, HEK-293 cells; for affinity for D3 receptor (in words): in vitro receptor binding assay
T1 construct: expressed in transfected cells; host or cells: HEK-293
T1 sequence (P35462 whole entry): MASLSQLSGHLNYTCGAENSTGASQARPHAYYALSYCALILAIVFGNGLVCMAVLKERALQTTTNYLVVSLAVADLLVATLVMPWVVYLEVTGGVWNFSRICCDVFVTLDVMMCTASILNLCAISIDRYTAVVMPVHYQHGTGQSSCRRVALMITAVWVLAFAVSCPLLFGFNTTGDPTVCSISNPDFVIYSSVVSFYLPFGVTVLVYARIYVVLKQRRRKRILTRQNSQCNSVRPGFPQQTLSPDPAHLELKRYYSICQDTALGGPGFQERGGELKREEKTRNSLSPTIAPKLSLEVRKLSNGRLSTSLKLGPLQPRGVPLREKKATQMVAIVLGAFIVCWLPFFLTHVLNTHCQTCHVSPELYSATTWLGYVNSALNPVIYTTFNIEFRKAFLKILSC
Protocol: After the cells were centrifuged at 1000 rpm for 5 min, the supernatant was discarded, and the cell pellet was collected and stored in a −20° C. fridge for reservation. It was re-suspended with Tris-Cl (pH 7.4) in the assay.
Tris was divided into aliquots by Genetimes Technology Inc.
Competitive binding test for receptors: 20 μl of each of the test compounds and 20 μl of the radioactive ligand together with 160 μl of the receptor proteins were added into the reaction tubes, and the final concentrations of the test compound and the positive drug were all 10 μmol/L. After 50 min of incubation in 30° C. water bath, the tubes were immediately moved to ice bath to terminate the reactions. GF/C glass fiber filter papers were used for rapid sucking filtration on a Millipore cell sample collector, elution buffer (50 mM Tris-HCl, PH 7.4) was applied for 3 ml×3 times, and microwave was applied for 4-5 min for drying. The filter papers were moved into 0.5 ml centrifuge tubes, and 500 μl of lipid-soluble scintillation solution was added. The tubes were allowed to stand still for over 30 min in dark, and the intensities of radioactivity were measured by a counter.

in vivo = conditions: both, mouse, po
Protocol: KM mice (half male and half female) were randomly divided into several groups (with 2-5 mice in each group), which were respectively the 2000 mg/kg groups for each compound, and the solvent group. 0.2 ml/10 g were administered intragastrically. The death of the animals in 3 days were observed. (In the case 3 or more animals survived in 3 days without notable abnormity in their life states, the observation was continued until the assay was completed in 7 days. In the case 3 or more animals died in 3 days, the median lethal dose method was used to determine the LD50).
0.2 ml/10 g were administered intragastrically, and the death of the animals in 1-3 days were observed.

dopamine D2 receptor = dopamine D2 receptor (Rattus norvegicus, UniProt P61169); assay: D2 receptor binding assay (3H-Spiperone, rat brain striatum membrane); conditions: for affinity for D2 receptor (in words): in vitro receptor binding assay; for inhibition at 10 µM: read-out: D2 inhibition %
Sequence of dopamine D2 receptor (P61169 whole entry): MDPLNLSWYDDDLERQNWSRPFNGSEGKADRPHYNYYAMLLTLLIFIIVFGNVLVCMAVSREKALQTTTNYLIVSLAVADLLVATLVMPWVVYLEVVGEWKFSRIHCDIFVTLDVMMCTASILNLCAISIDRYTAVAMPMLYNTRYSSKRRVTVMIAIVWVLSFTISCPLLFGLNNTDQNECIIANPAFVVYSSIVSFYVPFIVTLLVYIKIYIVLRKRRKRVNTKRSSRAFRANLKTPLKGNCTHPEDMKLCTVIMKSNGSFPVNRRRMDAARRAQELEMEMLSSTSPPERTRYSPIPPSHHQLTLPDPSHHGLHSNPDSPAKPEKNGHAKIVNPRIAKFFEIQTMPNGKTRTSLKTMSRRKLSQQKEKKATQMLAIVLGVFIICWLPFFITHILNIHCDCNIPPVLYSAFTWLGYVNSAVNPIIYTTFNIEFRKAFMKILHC

5-HT2C receptor = 5-HT2C receptor (Rattus norvegicus, UniProt P08909); assay: 5HT2C receptor binding assay ([3H]-mesulergine, rat brain striatum membrane); conditions: for inhibition at 10 µM: read-out: 5HT2C inhibition %
Sequence of 5-HT2C receptor (P08909 33-460): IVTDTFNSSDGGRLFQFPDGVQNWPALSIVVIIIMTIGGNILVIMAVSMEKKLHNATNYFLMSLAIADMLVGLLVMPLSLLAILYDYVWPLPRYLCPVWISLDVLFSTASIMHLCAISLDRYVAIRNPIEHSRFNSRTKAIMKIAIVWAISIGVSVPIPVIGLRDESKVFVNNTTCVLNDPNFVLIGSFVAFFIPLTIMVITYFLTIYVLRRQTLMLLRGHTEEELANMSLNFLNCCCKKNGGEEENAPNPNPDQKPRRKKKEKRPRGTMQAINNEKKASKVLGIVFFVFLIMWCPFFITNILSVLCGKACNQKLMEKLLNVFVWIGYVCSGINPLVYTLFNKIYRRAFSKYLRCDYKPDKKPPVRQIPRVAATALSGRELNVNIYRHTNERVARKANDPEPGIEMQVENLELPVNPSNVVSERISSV

5-HT1A receptor = target: T2, 5-HT1A receptor (Rattus norvegicus, UniProt P19327); assay: 5HT1A receptor binding assay (3H-8-OH-DPAT, rat brain striatum membrane); conditions: for IC50: cells marked ^a; for affinity for 5-HT1A receptor (in words): in vitro receptor binding assay
T2 sequence (P19327 1-422): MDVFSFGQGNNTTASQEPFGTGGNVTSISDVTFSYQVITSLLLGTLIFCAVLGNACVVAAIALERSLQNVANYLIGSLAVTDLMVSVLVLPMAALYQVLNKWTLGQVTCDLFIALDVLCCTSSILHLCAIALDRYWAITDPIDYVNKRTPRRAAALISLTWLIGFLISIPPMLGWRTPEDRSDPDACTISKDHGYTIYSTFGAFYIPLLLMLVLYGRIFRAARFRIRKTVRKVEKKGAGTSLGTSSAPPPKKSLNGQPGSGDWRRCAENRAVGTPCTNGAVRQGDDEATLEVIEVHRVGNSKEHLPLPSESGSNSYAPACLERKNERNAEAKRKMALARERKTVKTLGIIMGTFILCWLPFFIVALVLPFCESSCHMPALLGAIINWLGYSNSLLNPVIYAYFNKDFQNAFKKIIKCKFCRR
Protocol: Incubation at 37° C. was conducted for 10 min, the weight of the tubes were adjusted using a balance after incubation. […] Centrifugation was conducted and repeated 3 times.

5-HT2A receptor = 5-HT2A receptor (Rattus norvegicus, UniProt P14842); assay: 5HT2A receptor binding assay ([3H]-Ketanserin, rat brain striatum membrane); conditions: for IC50: cells marked ^a, [3H]-Ketanserin, rat brain striatum membrane
Sequence of 5-HT2A receptor (P14842 whole entry): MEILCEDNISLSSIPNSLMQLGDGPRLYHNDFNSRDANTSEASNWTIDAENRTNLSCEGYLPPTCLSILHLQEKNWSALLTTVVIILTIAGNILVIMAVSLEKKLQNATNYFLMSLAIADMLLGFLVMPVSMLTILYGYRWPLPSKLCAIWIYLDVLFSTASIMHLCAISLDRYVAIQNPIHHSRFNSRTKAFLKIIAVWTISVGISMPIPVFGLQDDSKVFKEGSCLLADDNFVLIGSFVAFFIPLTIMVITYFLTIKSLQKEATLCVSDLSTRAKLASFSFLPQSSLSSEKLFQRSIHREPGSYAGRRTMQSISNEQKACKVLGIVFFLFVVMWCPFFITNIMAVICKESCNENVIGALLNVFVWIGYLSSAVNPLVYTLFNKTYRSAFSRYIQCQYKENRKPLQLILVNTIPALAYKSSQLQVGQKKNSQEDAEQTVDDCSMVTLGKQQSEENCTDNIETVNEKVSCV

KM mice [2] = assay: Catalepsy assay; assay type: in vivo
Protocol: as §1, §2, §3

[3] = in vitro receptor binding assay
[4] = 3H-8-OH-DPAT, rat brain striatum membrane

## O=c1ccc2ccc(OCCCCN3CCC(c4noc5cc(F)ccc45)CC3)cc2o1 [Compound 1, 7-(4-(4-(3-(6-fluoro-benzisoxazole)-1-piperidyl)-n-butoxy))-2H-benzopyran-2-one]
Catalepsy assay
  ED50: 1.41 mg/kg
Mice of Kunming breed
  ED50: 0.61 mg/kg
KM mice [1]
  ED50: 0.32 mg/kg
D3 receptor
  inhibition at 10 µM: 97.6%
  affinity for D3 receptor (in words): relatively stronger affinities
In vivo
  LD50: > 2000 mg/kg
Dopamine D2 receptor
  affinity for D2 receptor (in words): relatively stronger affinities
  inhibition at 10 µM: 128%
5-HT2C receptor; [3]
  affinity for 5-HT2C receptor (in words): lower affinities
5-HT2C receptor
  inhibition at 10 µM: 88%
5-HT1A receptor; [4]
  IC50: 9.61 nM
5-HT1A receptor
  affinity for 5-HT1A receptor (in words): relatively stronger affinities
5-HT2A receptor
  IC50: 1.53 nM
5-HT2A receptor; [3]
  affinity for 5-HT2A receptor (in words): relatively stronger affinities

## Cc1cc(=O)oc2cc(OCCCCN3CCC(c4noc5cc(F)ccc45)CC3)ccc12 [Compound 6, 7-(4-(4-(3-(6-fluoro-benzisoxazole)-1-piperidyl)-n-butoxy))-4-methyl-2H-benzopyran-2-one]
Catalepsy assay
  ED50: 0.68 mg/kg
Mice of Kunming breed
  ED50: 0.32 mg/kg
KM mice [1]
  ED50: 0.11 mg/kg
D3 receptor
  inhibition at 10 µM: 100%
  affinity for D3 receptor (in words): relatively stronger affinities
In vivo
  LD50: > 2000 mg/kg
Dopamine D2 receptor
  affinity for D2 receptor (in words): relatively stronger affinities
  inhibition at 10 µM: 101%
5-HT2C receptor; [3]
  affinity for 5-HT2C receptor (in words): lower affinities
5-HT2C receptor
  inhibition at 10 µM: 91.4%
5-HT1A receptor; [4]
  IC50: 3.52 nM
5-HT1A receptor
  affinity for 5-HT1A receptor (in words): relatively stronger affinities
5-HT2A receptor
  IC50: 0.39 nM
5-HT2A receptor; [3]
  affinity for 5-HT2A receptor (in words): relatively stronger affinities

## Cc1cc(=O)oc2c(C)c(OCCCCN3CCC(c4noc5cc(F)ccc45)CC3)ccc12 [Compound 23, 7-(4-(4-(3-(6-fluoro-benzisoxazole)-1-piperidyl)-n-butoxy))-4,8-dimethyl-2H-benzopyran-2-one]
Catalepsy assay
  ED50: 46.1 mg/kg
KM mice [2]
  EPS at effective dosage (in words): did not cause EPS
Mice of Kunming breed
  ED50: 4.24 mg/kg
Mice of Kunming breed; compared to the model group
  improvement of MK-801 induced high activity (in words): significantly improve
KM mice [1]
  improvement of apomorphine induced clambering symptoms (in words): effectively improve
  ED50: 0.21 mg/kg
In vivo
  LD50: > 2000 mg/kg
Dopamine D2 receptor
  inhibition at 10 µM: 6.9%
5-HT1A receptor; test compound final concentration 10^−5 M, 3H-8-OH-DPAT, rat brain striatum membrane
  inhibition at 10 µM: 78.5%
5-HT2A receptor; read-out: 5HT2A inhibition %
  inhibition at 10 µM: 78.6%

## O=c1cc(C(F)(F)F)c2ccc(OCCCCN3CCN(c4nsc5ccccc45)CC3)cc2o1 [Compound 18, 7-(4-(4-(3-(1,2-benzisothiazole)-1-piperazinyl)-n-butoxy))-4-(trifluoromethyl)-2H-benzopyran-2-one]
D3 receptor
  inhibition at 10 µM: 103%
  affinity for D3 receptor (in words): relatively stronger affinities
Dopamine D2 receptor
  affinity for D2 receptor (in words): relatively stronger affinities
  inhibition at 10 µM: 113%
5-HT2C receptor
  affinity for 5-HT2C receptor (in words): lower affinities
5-HT2C receptor; test compound final concentration 10^−5 M, [3H]-mesulergine, rat brain striatum membrane
  inhibition at 10 µM: 77.6%
5-HT1A receptor; [4]
  IC50: 6.19 nM
5-HT1A receptor
  affinity for 5-HT1A receptor (in words): relatively stronger affinities
other
  melting point: 93 to 95 °C
5-HT2A receptor
  affinity for 5-HT2A receptor (in words): relatively stronger affinities
  IC50: 0.79 nM
